Consider twelve molecules from US11807635B2, “Nitrile derivative that acts as inhibitor of dipeptidyl peptidase 1 and use thereof” (HAISCO PHARMACEUTICALS PTE. LTD, priority 2020, dated 2023).

A short description of data set [1]: Pharmacokinetic experiment in rats. The class given is in vivo. Particulars: rat, male SD rats, plasma; for Vd: read-out: Vdss. The protocol: 1.1 Test animals: Male SD rats, about 220 g, 6-8 weeks old, 6 rats/compound. The rats were purchased from CHENGDU DOSSY EXPERIMENTAL ANIMALS CO., LTD.
1.2 Test design: On the day of the experiment, 6 SD rats were randomly grouped according to their body weight. The rats were fasted but given water for 12-14 h one day before the administration, and were fed 4 h after the administration.
Before and after the administration, 0.1 ml of blood was taken from the orbit of the rats under isoflurane anesthesia and placed in an EDTAK2 centrifuge tube. The blood was centrifuged at 5000 rpm and 4° C. for 10 min to collect plasma. Blood sampling time point for the intravenous administration group: 0, 5, 15, 30 min, 1, 2, 4, 6, 8, and 24 h; and blood sampling time point for the intragastric administration group: 0, 5, 15, 30 min, 1, 2, 4, 6, 8, and 24 h. Before analysis and detection, all samples were stored at −80° C.

Data set [2] deals with Recombinant human DPP1 enzyme (Homo sapiens (Human), UniProt P53634). Briefly: In vitro DPP1 enzyme activity assay. Type of data set: biochemical. Particulars: recombinant human DPP1 activated with cathepsin L, substrate Gly-Arg-AMC, fluorescence; read-out: DPP1 inhibitory activity IC50.
Experimental: Recombinant human DPP1 enzyme (R&D Systems, Cat. No. 1071-CY) at a final concentration of 100 μg/mL was mixed with recombinant human cathepsin L (R&D Systems, Cat. No. 952-CY) at a final concentration of 20 μg/mL were mixed and incubated at room temperature for 1 hour to activate the DPP1 enzyme. The activated DPP1 enzyme was diluted 100-fold, and 5 μL of compounds at different concentrations and 5 μL of the diluted DPP1 enzyme were added to a 384-well plate and incubated at room temperature for 30 minutes. […] IC50 values were calculated using the DosResp function of the Origin2019 software.

The structures appear in SMILES notation.

Recombinant human DPP1 enzyme, sequence (P53634 25-134): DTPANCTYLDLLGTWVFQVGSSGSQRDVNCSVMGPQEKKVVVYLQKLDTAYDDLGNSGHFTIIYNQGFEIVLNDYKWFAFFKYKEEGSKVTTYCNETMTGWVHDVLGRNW
Recombinant human DPP1 enzyme, sequence (P53634 231-394): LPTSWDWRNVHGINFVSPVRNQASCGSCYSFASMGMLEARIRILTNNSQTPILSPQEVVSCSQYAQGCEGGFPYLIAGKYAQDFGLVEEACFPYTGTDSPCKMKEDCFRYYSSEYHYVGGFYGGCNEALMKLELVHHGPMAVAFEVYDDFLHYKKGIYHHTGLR
Recombinant human DPP1 enzyme, sequence (P53634 395-463): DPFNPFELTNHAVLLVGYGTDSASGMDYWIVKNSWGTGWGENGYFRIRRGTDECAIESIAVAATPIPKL

A word on the AUC(0-t): it is exposure summed from dosing to a finite time, without extrapolation to infinity. What is called clearance is the volume of plasma or blood freed of the substance per unit of time. Read a low clearance as a low capacity for elimination. A word on the bioavailability: it is dose-corrected exposure relative to a reference, in per cent. Read a low bioavailability as little systemic uptake. Turning to `Cn1c(=O)oc2ccc(-c3ccc(C[C@@H](C#N)NC(=O)[C@@H]4CNCCCO4)c(F)c3)cc21` [Compound 1, (S)—N—((S)-1-cyano-2-(2-fluoro-4-(3-methyl-2-oxo-2,3-dihydrobenzo[d]oxazol-5-yl)phenyl)ethyl)-1,4-oxazepane-2-carboxamide], in data set [1] (iv, intravenously 1 mg/kg), the area under the curve AUC(0-t) stood at 9500 ng·h/mL, the clearance is 1.66 mL/min/kg and the Vd came out at 0.753 L/kg. In data set [1] (po, intragastrically 3 mg/kg), this molecule registered a bioavailability of more than 100% and an AUC(0-t) of 31200 ng·h/mL.

One may read the IC50 as the concentration that inhibits the measured activity by half. `N#C[C@H](Cc1ccc(-c2ccc3c(c2)CCNC3=O)cc1F)NC(=O)[C@@H]1CNCCCO1` [Compound 10, (S)—N—((S)-1-cyano-2-(2-fluoro-4-(1-oxo-1,2,3,4-tetrahydroisoquinolin-6-yl)phenyl)ethyl)-1,4-oxazepane-2-carboxamide]: the 50% inhibitory concentration (IC50) in data set [2] was 6.7 nM.

Turning to `N#C[C@H](Cc1ccc(C#CC2CCCC2)cc1F)NC(=O)[C@@H]1CNCCCO1` [Compound 11, (S)—N—((S)-1-cyano-2-(4-(cyclopentylethynyl)-2-fluorophenyl)ethyl)-1,4-oxazepane-2-carboxamide], the IC50 in data set [2] stood at 239 nM.

`Cc1nc(-c2ccc(C[C@@H](C#N)NC(=O)[C@@H]3CNCCCO3)c(F)c2)sc1C#N` [Compound 12, (S)—N—((S)-1-cyano-2-(4-(5-cyano-4-methylthiazol-2-yl)-2-fluorophenyl)ethyl)-1,4-oxazepane-2-carboxamide]: in data set [2], the IC50 stood at 21 nM.

Turning to `N#C[C@H](Cc1ccc(-c2nc3ccccc3s2)cc1F)NC(=O)[C@@H]1CNCCCO1` [Compound 13, (S)—N—((S)-2-(4-(benzo[d]thiazol-2-yl)-2-fluorophenyl)-1-cyanoethyl)-1,4-oxazepane-2-carboxamide], the IC50 in data set [2] was 71 nM.

For the molecule `CN1CCN(Cc2ccc(-c3ccc(C[C@@H](C#N)NC(=O)[C@@H]4CNCCCO4)c(F)c3)cc2)CC1` [Compound 14, (S)—N—((S)-1-cyano-2-(3-fluoro-4′-((4-methylpiperazin-1-yl)methyl)-[1,1′-biphenyl]-4-yl)ethyl)-1,4-oxazepane-2-carboxamide], in data set [2], the IC50 amounted to 12.9 nM.

As for `Cc1csc(-c2ccc(C[C@@H](C#N)NC(=O)[C@@H]3CNCCCO3)c(F)c2)n1` [Compound 15, (S)—N—((S)-1-cyano-2-(2-fluoro-4-(4-methylthiazol-2-yl)phenyl)ethyl)-1,4-oxazepane-2-carboxamide], the half-inhibitory concentration (IC50) in data set [2] was 33 nM.

Consider `N#Cc1ccc(-c2ccc(C[C@@H](C#N)NC(=O)[C@@H]3CNCCCO3)c(F)c2)cc1C1CC1` [Compound 17, (S)—N—((S)-1-cyano-2-(4′-cyano-3′-cyclopropyl-3-fluoro-[1,1′-biphenyl]-4-yl)ethyl)-1,4-oxazepane-2-carboxamide], for which, in data set [2], the 50% inhibitory concentration (IC50) turned out to be 7.4 nM.

As for `N#Cc1ccc(-c2ccc(C[C@@H](C#N)NC(=O)[C@@H]3CNCCCO3)c(F)c2)cc1C(F)(F)F` [Compound 29, (S)—N—((S)-1-cyano-2-(4′-cyano-3-fluoro-3′-(trifluoromethyl)-[1,1′-biphenyl]-4-yl)ethyl)-1,4-oxazepane-2-carboxamide], in data set [2], the IC50 was determined as 4.9 nM.

Take `Cn1c(=O)oc2ccc(-c3cc(F)c(C[C@@H](C#N)NC(=O)[C@@H]4CNCCCO4)cn3)cc21` [Compound 35, (S)—N—((S)-1-cyano-2-(4-fluoro-6-(3-methyl-2-oxo-2,3-dihydrobenzo[d]oxazol-5-yl)pyridin-3-yl)ethyl)-1,4-oxazepane-2-carboxamide]: in data set [2], the IC50 stood at 4 nM.

Consider `COC1CNCC(C(=O)N[C@H](C#N)Cc2ccc(-c3ccc(S(F)(F)(F)(F)F)cc3)cc2F)OC1` (stereo partly drawn) [Compound 43, N—((S)-1-cyano-2-(3-fluoro-4′-(pentafluoro-16-sulfanyl)-[1,1′-biphenyl]-4-yl)ethyl)-6-methoxy-1,4-oxazepane-2-carboxamide], for which, in data set [2], the half-maximal inhibitory concentration (IC50) amounted to 0.3 nM.

Take `Cn1c(=O)oc2ccc(-c3ccc(C[C@@H](C#N)NC(=O)[C@@H]4CNCCCO4)cc3)cc21` [INS1007, reference compound]: in data set [1] (iv, intravenously 1 mg/kg), the AUC(0-t) was 8400 ng·h/mL, the clearance was determined as 2.08 mL/min/kg and the Vd was determined as 0.738 L/kg. In data set [1] (po, intragastrically 3 mg/kg), this molecule showed a bioavailability of 88.1% and an AUC(0-t) of 22200 ng·h/mL.
